Source: PubChem BioAssay AID1347132
Activity calls are given as the source filed them.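 How the source made its calls: active means over 75% inhibition of phospholipid synthesis and over 75% inhibition of fatty acid synthesis; inactive means the rest.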

System: animal cells, 32Pi/[3H]acetate lipid labeling, 3 h
Assay: lipid synthesis blockade by radiolabel incorporation – cell-based, 32Pi and [3H]acetate labeling (AID 1347132)

CC(C)(C)c1cc(/C=C(\C#N)C(N)=S)cc(C(C)(C)C)c1O
inactive: outcome | outcome (listed dose 0.1 µM) | outcome (listed dose 0.3 µM) | outcome (listed dose 1 µM) | outcome (listed dose 3 µM)
active: outcome (listed dose 10 µM)
